Results from US20090233917A1, “Stroke recovery” (priority 2006, published 2009).

Legend:
[1] = system: rat cortical neurons (mixed cortical cultures); test: Oxygen/glucose deprivation (OGD) of rat cortical neurons, cell death by LDH release; type: cell-based, Wistar rat; settings: all concentrations (0.1-50 μM) except 0.2 μM; added one hour after onset of OGD
Experimental: Mixed cortical cultures were prepared from E18 Wistar rat embryos (National Animal Center, Kuopio, Finland). The cortices were dissected and the tissue cut into small pieces. The cells were separated by fifteen minute incubation with DNase and papain. The cells were collected by centrifugation (1500 rpm, 5 min). The tissue was triturated with a pipette and the cells were placed on poly-L-lysine coated 48-well plates, 300,000 cells/cm2, in MEM (2 g/L glucose) supplemented with 2 mM glutamine, 0.1 μg/mL gentamicin, 10% heat-inactivated fetal bovine serum (FSB-HI) and 10% heat-inactivated horse serum (HS-HI). After 3-4 hours, the medium was changed to MEM (2 g/L glucose) and supplemented with 2 mM glutamine, 0.1 μg/mL gentamicin, 5% HS-HI. After three days in vitro, cells were transferred into medium containing MEM (2 g/L glucose) supplemented with glutamine, gentamicin and 5% each of FSB-HI and HS-HI sera. On day 6 in vitro, unwanted cell division was inhibited by adding cytosine arabinoside (10 μM final concentration) for 24 hours. […]
After 24 hours, possible cell debris was removed by centrifugation (13,000 rpm, 3 min.). […] The absorbance at 340 nm was measured immediately using a 3 min. kinetic measurement protocol in Multiskan ELISA reader (Labsystems, Finland). The change in absorbance/min was determined, which is directly proportional to the released LDH (=cell death).

MCA occlusion in rats = test: Functional recovery following MCA occlusion in rats, therapeutic window / time course (Examples 4, 5); type: in vivo, Sprague Dawley Rats
Experimental: Fifty male Sprague Dawley Rats, each weighing 300-400 g, are operated under anesthesia to create MCA occlusion as described in Example 1, and are divided into 5 groups of 10 animals each. […] One group is a control group with administration of the vehicle only at 6 hours. The animals are evaluated as described in Example 2. The experiment of Example 4 is also carried out using iroxanadine as the therapeutic agent.

healthy human volunteers = test: Pharmacokinetic clinical study in healthy human volunteers; type: in vivo
Experimental: Seven healthy human volunteers were administered orally 400 mg t.i.d. dosing (1200 mg/day) in a double-blinded and placebo controlled clinical study.

In the case of `[O-][n+]1cccc(/C(Cl)=N/OC[C@H](O)CN2CCCCC2)c1` [arimoclomol, N-[2-hydroxy-3-(1-piperidinyl)propoxy]-pyridine-1-oxide-3-carboximidoyl chloride], the “cytoprotection against OGD as measured by LDH release” value [1] is reported as “cytoprotective”, the “Body Swing Test, recovery compared to vehicle group” value (MCA occlusion in rats; 200 mg/kg/d p.o., all start times) is reported as “superior to the vehicle group” and the “Hindlimb Placing Test, time course of recovery compared to vehicle group” value (MCA occlusion in rats; 200 mg/kg/d p.o., first dose 6, 12, 24 or 48 h after occlusion) is reported as “superior to the vehicle group”. The “Forelimb Placing Test, recovery compared to vehicle group” value (MCA occlusion in rats; 200 mg/kg/d p.o., first dose 6, 12, 24 or 48 h after occlusion, all groups) was “superior to the vehicle group”, the “Hindlimb Placing Test, difference among treated groups” value (MCA occlusion in rats; first administration 6, 12, 24, or 48 hours after occlusion) was “no statistical difference” and the “Body Swing Test, performance after 21 days” value (MCA occlusion in rats; first administration 6 hours after occlusion) was “continued to show improved performance”. The “Forelimb Placing Test, recovery compared to other start times” value (MCA occlusion in rats; first administration 6 hours after stroke) was “superior”, the “Forelimb Placing Test, recovery” value (MCA occlusion in rats; first administration 48 hours after occlusion) was “significant and sustained” and the “Body Swing Test, recovery of 48 h group compared to 6 h group” value (MCA occlusion in rats; time points up to and including 21 days after occlusion) was “indistinguishable”. The “clinical abnormalities or changes (ECGs, vital signs, clinical chemistry, physical examination, body weight)” value (healthy human volunteers; 400 mg t.i.d. (1200 mg/day) orally) was “No clinical abnormalities or changes were observed” and the “level of exposure of the 200 mg/kg/day rat PK study in humans” value (healthy human volunteers; 400 mg t.i.d. orally, AUC and Cmax, FIG. 15) was “can be safely achieved in human volunteers”.
